From patent publication US20120015907A1, “Furopyridine compounds and uses thereof” (NOVARTIS AG, priority 2010, published 2012)

Target: T1, HCV polymerase (Hepatitis C virus genotype 1b, UniProt Q9WMX2)
T1 construct: (His)6 (C)
Assay: biochemical
Conditions: NS5B polymerase IC50 μM, polymerase assay of Biological Example 1

SMILES | IC50 [µM]
CNC(=O)c1c(-c2ccc(C)cc2)oc2nc(N(CCCCCP(C)(=O)O)S(C)(=O)=O)c(I)cc12 [Example 23.9998, 5-(N-(5-iodo-3-(methylcarbamoyl)-2-p-tolylfuro[2,3-b]pyridin-6-yl)methylsulfonamido)pentyl (methyl)phosphinic acid] | 0.011
CCOP(C)(=O)CCCCN(c1nc2oc(-c3ccc(CC)cc3)c(C(=O)NC)c2cc1I)S(C)(=O)=O (stereo not drawn) [Example 23.9991, ethyl 4-(N-(2-(4-ethylphenyl)-5-iodo-3-(methylcarbamoyl)furo[2,3-b]pyridin-6-yl)methylsulfonamido) butyl(methyl)phosphinate] | 0.026
CNC(=O)c1c(-c2ccc(C)cc2)oc2nc(N(CCCCP(C)(=O)O)S(C)(=O)=O)c(I)cc12 [Example 23.9999, 4-(N-(5-iodo-3-(methylcarbamoyl)-2-p-tolylfuro[2,3-b]pyridin-6-yl)methylsulfonamido)butyl (methyl)phosphinic acid] | 0.013

Same assay, conditions: polymerase assay of Biological Example 1; read-out: NS5B polymerase IC50

SMILES | IC50 [µM]
CCc1cc2c(C(=O)NC)c(-c3ccc(F)cc3)oc2nc1N(CCCN1CCCC1=O)S(C)(=O)=O [Example 22.996, 5-ethyl-2-(4-fluorophenyl)-N-methyl-6-(N-(3-(2-oxopyrrolidin-1-yl)propyl)methylsulfonamido)furo[2,3-b]pyridine-3-carboxamide] | 0.059
CNC(=O)c1c(-c2ccc(F)cc2)oc2nc(N(CCC(O)CO)S(C)(=O)=O)c(I)cc12 (stereo not drawn) [Example 18.94, 6-(N-(3,4-dihyroxybutyl)methylsulfonamido)-2-(4-fluorophenyl)-5-iodo-N-methylfuro[2,3-b]pyridine-3-carboxamide] | 0.243
CCc1cc2c(C(=O)NC)c(-c3ccc(F)cc3)oc2nc1N(CC[C@H]1COc2c(OC)cccc21)S(C)(=O)=O [Example 22.9, (R)-5-ethyl-2-(4-fluorophenyl)-6-(N-(2-(7-methoxy-2,3-dihydrobenzofuran-3-yl)ethyl)methylsulfonamido)-N-methylfuro[2,3-b]pyridine-3-carboxamide] | 0.023
CCc1cc2c(C(=O)NC)c(-c3ccc(F)cc3)oc2nc1N(CCc1cccc(OC)c1)S(C)(=O)=O [Example 21.9, 5-ethyl-2-(4-fluorophenyl)-6-(N-(3-methoxyphenethyl)methylsulfonamido)-N-methylfuro[2,3-b]pyridine-3-carboxamide] | 0.772
CNC(=O)c1c(-c2ccccc2)oc2nc(N(C)S(C)(=O)=O)c(C3CC3)cc12 [Example 2.8, 5-cyclopropyl-N-methyl-6-(N-methylmethylsulfonamido)-2-phenylfuro[2,3-b]pyridine-3-carboxamide] | 0.03
CCc1cc2c(C(=O)NC)c(-c3ccc(F)cc3)oc2nc1N(CCCNS(C)(=O)=O)S(C)(=O)=O [Example 23.4, 5-ethyl-2-(4-fluorophenyl)-N-methyl-6-(N-(3-(methylsulfonamido)propyl)methylsulfonamido)furo[2,3-b]pyridine-3-carboxamide] | 0.125
CCc1cc2c(C(=O)NC)c(-c3ccc(F)cc3)oc2nc1N(CCc1ccc(OC)cc1)S(C)(=O)=O [Example 21.993, 5-ethyl-2-(4-fluorophenyl)-6-(N-(4-methoxyphenethyl)methylsulfonamido)-N-methylfuro[2,3-b]pyridine-3-carboxamide] | 0.228
CCc1cc2c(C(=O)NC)c(-c3ccc(F)cc3)oc2nc1N(CCCCOc1ccccc1OC)S(C)(=O)=O [Example 22.1, 5-ethyl-2-(4-fluorophenyl)-6-(N-(4-(2-methoxyphenoxy)butyl)methylsulfonamido)-N-methylfuro[2,3-b]pyridine-3-carboxamide] | 0.034
CNC(=O)c1c(-c2ccc(F)cc2)oc2nc(N(CCCNS(=O)(=O)c3ccccc3[N+](=O)[O-])S(C)(=O)=O)c(I)cc12 [Example 23.993, 2-(4-fluorophenyl)-5-iodo-N-methyl-6-(N-(3-(2-nitrophenylsulfonamido)propyl)methylsulfonamido) furo[2,3-b]pyridine-3-carboxamide] | 0.125
CNC(=O)c1c(-c2ccccn2)oc2nc(N(C)S(C)(=O)=O)c(I)cc12 [Example 2.3, 5-iodo-N-methyl-6-(N-methylmethylsulfonamido)-2-(pyridin-2-yl)furo[2,3-b]pyridine-3-carboxamide] | 0.408
C=C[C@@H](CN(c1nc2oc(-c3ccc(F)cc3)c(C(=O)NC)c2cc1C(=C)C)S(C)(=O)=O)OCc1ccccc1 [Example 35, (S)-6-(N-(2-(benzyloxy)but-3-enyl)methylsulfonamido)-2-(4-fluorophenyl)-N-methyl-5-(prop-1-en-2-yl)furo[2,3-b]pyridine-3-carboxamide] | 6.03
CNC(=O)c1c(-c2ccc(F)cc2)oc2nc(N(CCCCC#N)S(C)(=O)=O)c(I)cc12 [Example 18.9, 6-(N-(4-cyanobutyl)methylsulfonamido)-2-(4-fluorophenyl)-5-iodo-N-methylfuro[2,3-b]pyridine-3-carboxamide] | 0.109
CCc1cc2c(C(=O)NC)c(-c3ccc(F)cc3)oc2nc1N(CCOCCOC)S(C)(=O)=O [Example 21.8, 5-ethyl-2-(4-fluorophenyl)-6-(N-(2-(2-methoxyethoxy)ethyl)methylsulfonamido)-N-methylfuro[2,3-b]pyridine-3-carboxamide] | 0.688
CCc1cc2c(C(=O)NC)c(-c3ccc(F)cc3)oc2nc1N(CCCC#N)S(C)(=O)=O [Example 21.991, 6-(N-(3-cyanopropyl)methylsulfonamido)-5-ethyl-2-(4-fluorophenyl)-N-methylfuro[2,3-b]pyridine-3-carboxamide] | 0.074
CNC(=O)c1c(-c2ccc(F)cc2)oc2nc(N(C)S(C)(=O)=O)c(CCCCCNC(C)=O)cc12 [Example 14.3, 5-(5-Acetylamino-pentyl)-2-(4-fluoro-phenyl)-6-(methanesulfonyl-methyl-amino)-furo[2,3-b]pyridine-3-carboxylic acid methylamide] | 0.498
CCc1cc2c(C(=O)NC)c(-c3ccc(F)cc3)oc2nc1N(CCCS(=O)(=O)N1CCCC1)S(C)(=O)=O [Example 22.91, 5-ethyl-2-(4-fluorophenyl)-N-methyl-6-(N-(3-(pyrrolidin-1-ylsulfonyl)propyl)methylsulfonamido)furo[2,3-b]pyridine-3-carboxamide] | 0.034
CCc1cc2c(C(=O)NC)c(-c3ccc(F)cc3)oc2nc1N(CCCC(C)(C)C(=O)OCC(C)C)S(C)(=O)=O [Example 21.3, isobutyl 5-(N-(5-ethyl-2-(4-fluorophenyl)-3-(methylcarbamoyl)furo[2,3-b]pyridin-6-yl)methylsulfonamido)-2,2-dimethylpentanoate] | 0.134
CNC(=O)c1c(-c2ccc(C)cc2)oc2nc(N(CCC[C@H](C)C(=O)O)S(C)(=O)=O)c(C3CC3)cc12 [Example 47, (S)-5-(N-(5-cyclopropyl-3-(methylcarbamoyl)-2-p-tolylfuro[2,3-b]pyridin-6-yl)methylsulfonamido)-2-methylpentanoic acid] | 0.002
CCc1cc2c(C(=O)NC)c(-c3ccc(F)cc3)oc2nc1N(CCCCC(=O)O)S(C)(=O)=O [Example 21.2, 5-(N-(5-ethyl-2-(4-fluorophenyl)-3-(methylcarbamoyl)furo[2,3-b]pyridin-6-yl)methylsulfonamido)pentanoic acid] | 0.012

Other lines, results leading:

IC50 [µM] | SMILES
0.003 | CCc1ccc(-c2oc3nc(N(CCCCC4(C(=O)O)CCOCC4)S(C)(=O)=O)c(C4CC4)cc3c2C(=O)NC)cc1 [Example 29.94, 4-(4-(N-(5-cyclopropyl-2-(4-ethylphenyl)-3-(methylcarbamoyl)furo[2,3-b]pyridin-6-yl)methylsulfonamido)butyl) tetrahydro-2H-pyran-4-carboxylic acid]
0.005 | CNC(=O)c1c(-c2ccc(C)cc2)oc2nc(N(CCCC[C@H](COC)C(=O)N[C@H](CO)Cc3ccccc3)S(C)(=O)=O)c(C3CC3)cc12 [Example 47.6, 5-Cyclopropyl-6-(N—((R)-6-((S)-1-hydroxy-3-phenylpropan-2-ylamino)-5-(methoxymethyl)-6-oxohexyl)methylsulfonamido)-N-methyl-2-p-tolylfuro[2,3-b]pyridine-3-carboxamide]
0.017 | C=CCCN(c1nc2oc(-c3ccc(C)cc3)c(C(=O)NC)c2cc1C1CC1)S(C)(=O)=O [Example 29.98, 6-(N-(but-3-enyl)methylsulfonamido)-5-cyclopropyl-N-methyl-2-p-tolylfuro[2,3-b]pyridine-3-carboxamide]
0.006 | CNC(=O)c1c(-c2ccc(C)cc2)oc2nc(N(CC3CCC(=O)O3)S(C)(=O)=O)c(C3CC3)cc12 (stereo not drawn) [Example 29.994, 5-cyclopropyl-N-methyl-6-(N-((5-oxotetrahydrofuran-2-yl)methyl)methylsulfonamido)-2-p-tolylfuro[2,3-b]pyridine-3-carboxamide]
0.002 | CNC(=O)c1c(-c2ccc(C)cc2)oc2nc(N(CCCCC#N)S(C)(=O)=O)c(C3CC3)cc12 [Example 29.6, 6-(N-(4-cyanobutyl)methylsulfonamido)-5-cyclopropyl-N-methyl-2-p-tolylfuro[2,3-b]pyridine-3-carboxamide]
0.003 | CNC(=O)c1c(-c2ccc(C)cc2)oc2nc(N(CCCC3(C(=O)O)CCN(C)CC3)S(C)(=O)=O)c(C3CC3)cc12 [Example 29.99993, 4-(3-(N-(5-cyclopropyl-3-(methylcarbamoyl)-2-p-tolylfuro[2,3-b]pyridin-6-yl)methylsulfonamido)propyl)-1-methylpiperidine-4-carboxylic acid]
0.003 | CNC(=O)c1c(-c2ccc(C)cc2)oc2nc(N(CCCC3(C(=O)O)CCOCC3)S(C)(=O)=O)c(C3CC3)cc12 [Example 28.4, 4-(3-(N-(5-cyclopropyl-3-(methylcarbamoyl)-2-p-tolylfuro[2,3-b]pyridin-6-yl)methylsulfonamido)propyl)tetrahydro-2H-pyran-4-carboxylic acid]
0.003 | CNC(=O)c1c(-c2ccc(C)cc2)oc2nc(N(CCCC3CCCC3C(=O)O)S(C)(=O)=O)c(C3CC3)cc12 (stereo not drawn) [Example 29.4, 2-(3-(N-(5-cyclopropyl-3-(methylcarbamoyl)-2-p-tolylfuro[2,3-b]pyridin-6-yl)methylsulfonamido)propyl) cyclopentanecarboxylic acid]
